Test results: patent publication US7067667B2, “Aminoalkyl-3, 4-dihydroquinoline derivatives as no-synthase inhibitors” (Schering Aktiengesellschaft, priority 1998, dated 2006)
Structures can show the parent of a compound that is named as a salt.

Target: bNOS (UniProt P29475)
Experiment: bNOS inhibition (method of Bredt and Snyder)
Type: biochemical
From the text: The NOS-inhibitory action of the compounds of Formula (I) and their physiologically compatible salts can be determined according to the methods by Bredt and Snyder in Proc. Natl. Acad. Sci. USA (1989) 86, 9030–9033.

- IC50: 190 nM
SMILES: NC1=Nc2cc(CCNCc3cccc(Cl)c3)c(Cl)cc2C2CCCC12 (stereo not shown) [Example 8, 4-Amino-8-chloro-7-(3-chlorobenzylamino)ethyl-2,3,3a,9b-tetrahydro-1H-cyclopenta[c]quinoline Dihydrochloride]
